Results on 6 molecules are retold here after paper PMC4230938, “A High-Yield Co-Expression System for the Purification of an Intact Drs2p-Cdc50p Lipid Flippase Complex, Critically Dependent on and Stabilized by Phosphatidylinositol-4-Phosphate” (PLoS ONE, 2014).

The target of series [1] is T1, Drs2p-Cdc50p complex (Saccharomyces cerevisiae, UniProt P39524).
T1 construct: gene DRS2; full-length, co-expressed in yeast W303.1b/GAL4; N-terminal Bad tag (Drs2p) and His10 tag (Cdc50p) cut by TEV, Gly plus four-Gly linker left; 154,050 Da Drs2p, 45,136 Da unglycosylated Cdc50p; glycosylated; 1:1 complex in DDM; with Cell division control protein 50
T1 sequence (P39524 1-1355): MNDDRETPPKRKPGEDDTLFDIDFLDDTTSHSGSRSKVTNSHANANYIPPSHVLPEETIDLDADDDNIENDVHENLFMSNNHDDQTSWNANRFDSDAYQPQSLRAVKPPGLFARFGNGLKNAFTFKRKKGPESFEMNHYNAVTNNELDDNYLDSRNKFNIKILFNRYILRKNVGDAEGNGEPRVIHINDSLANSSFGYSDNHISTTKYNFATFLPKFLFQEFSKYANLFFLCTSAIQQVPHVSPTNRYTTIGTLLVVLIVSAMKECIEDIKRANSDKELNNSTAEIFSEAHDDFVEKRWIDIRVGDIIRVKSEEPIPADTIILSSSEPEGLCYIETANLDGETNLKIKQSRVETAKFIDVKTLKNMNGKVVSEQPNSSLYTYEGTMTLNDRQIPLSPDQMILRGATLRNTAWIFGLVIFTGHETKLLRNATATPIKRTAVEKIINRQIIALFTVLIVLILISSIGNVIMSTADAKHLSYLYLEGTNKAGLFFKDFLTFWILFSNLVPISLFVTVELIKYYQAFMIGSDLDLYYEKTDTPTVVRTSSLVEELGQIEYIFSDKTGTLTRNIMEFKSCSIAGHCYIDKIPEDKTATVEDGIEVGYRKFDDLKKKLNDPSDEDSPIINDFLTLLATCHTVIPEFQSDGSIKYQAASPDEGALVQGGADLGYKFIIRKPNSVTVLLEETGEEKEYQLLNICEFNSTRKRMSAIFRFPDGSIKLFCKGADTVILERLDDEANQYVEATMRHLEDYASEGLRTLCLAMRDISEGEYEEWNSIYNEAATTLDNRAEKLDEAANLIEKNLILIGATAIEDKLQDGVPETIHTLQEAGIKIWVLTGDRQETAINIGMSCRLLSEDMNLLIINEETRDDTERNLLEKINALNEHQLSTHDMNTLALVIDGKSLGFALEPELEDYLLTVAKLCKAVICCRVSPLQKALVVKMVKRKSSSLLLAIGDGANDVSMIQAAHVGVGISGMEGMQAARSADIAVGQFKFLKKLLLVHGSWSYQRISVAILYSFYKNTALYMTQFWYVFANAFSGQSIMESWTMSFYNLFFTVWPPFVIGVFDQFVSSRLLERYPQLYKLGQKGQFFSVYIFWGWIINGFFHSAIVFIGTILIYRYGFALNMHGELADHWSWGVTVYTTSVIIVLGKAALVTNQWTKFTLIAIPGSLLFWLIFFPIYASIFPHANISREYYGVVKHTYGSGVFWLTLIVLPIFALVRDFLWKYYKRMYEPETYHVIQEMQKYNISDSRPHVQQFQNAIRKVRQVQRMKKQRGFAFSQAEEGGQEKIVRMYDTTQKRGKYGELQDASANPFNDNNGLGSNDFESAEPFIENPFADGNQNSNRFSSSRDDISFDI
T1 sequence (P25656 1-391 partner): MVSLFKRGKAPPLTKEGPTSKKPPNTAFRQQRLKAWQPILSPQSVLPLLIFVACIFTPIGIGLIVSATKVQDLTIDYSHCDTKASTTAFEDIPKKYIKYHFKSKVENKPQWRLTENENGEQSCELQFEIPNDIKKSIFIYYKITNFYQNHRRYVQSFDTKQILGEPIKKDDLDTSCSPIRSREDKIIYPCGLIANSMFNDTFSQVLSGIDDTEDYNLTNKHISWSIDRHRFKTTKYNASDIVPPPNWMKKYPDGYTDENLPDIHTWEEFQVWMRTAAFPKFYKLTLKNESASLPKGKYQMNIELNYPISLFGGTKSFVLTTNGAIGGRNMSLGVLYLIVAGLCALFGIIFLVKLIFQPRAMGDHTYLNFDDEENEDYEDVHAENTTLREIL
The series is described as follows: ATPase activity of complex purified without PS. In kind it is biochemical. The conditions noted are these: lipid stimulation at 0.05 mg/mL; 0.025 mg/mL PI4P, 1 mM Mg-ATP, 1 mg/mL DDM, pH 7, 30 °C.

The target in series [2] is T1, Drs2p-Cdc50p complex. The series is described as follows: ATPase activity, colorimetric Pi release. The conditions noted are these: transported lipid stimulating ATPase; 0.025 mg/mL PI4P, 1 mM Mg-ATP, 1 mg/mL DDM, pH 7, 30 °C; residual PS from purification present; read-out: [PS]1/2. Format: biochemical.
The target of series [3] is T1, Drs2p-Cdc50p complex. In words: ATPase activity, colorimetric Pi release. Format: biochemical. The following applies: inhibitor; 1 h pre-incubation on ice; 1 mM ATP, 0.025 mg/mL PI4P, 0.05 mg/mL POPS, 1 mg/mL DDM, pH 7, 30 °C; printed only as a range.
For series [4], the target named is T2, Drs2p, tag-free after TEV cleavage (S. cerevisiae, UniProt P39524 1-1355).
T2 construct: Drs2p, yeast P4-ATPase; theoretical mass of the recombinant protein 154,050 Da; also called purified Drs2p; source: S. cerevisiae W303.1b/GAL4, co-expressed with Cdc50p, purified (streptavidin-Sepharose, TEV elution, Ni2+-TED; SEC); not shown: Bad (Biotin Acceptor Domain), N-terminal, cleaved
T2 sequence (looked up): T1 sequence (P39524 1-1355)
In words: in-gel fluorescence of haloalkane-modified Trp residues after SDS-PAGE; band intensities of Drs2p and Cdc50p in the streptavidin-purified complex, 4-20% gradient gel. The following applies: both partners purified.

Substrate in series [5]: Nc1ncnc2c1ncn2[C@@H]1O[C@H](COP(=O)(O)OP(=O)(O)OP(=O)(O)O)[C@@H](O)[C@H]1O
The series is described as follows: ATPase activity, colorimetric Pi release. Format: biochemical, Saccharomyces cerevisiae. The conditions noted are these: 0.025 mg/mL PI4P, 0.05 mg/mL POPS, 1 mg/mL DDM, ATP-regenerating system, pH 7, 30 °C.

On to `CCCCCCCCCCCCCC(=O)OC[C@H](COP(=O)(O)OC[C@H](N)C(=O)O)OC(=O)CCCCCCCCCCCCC` [DMPS, 1,2-dimyristoyl-sn-glycero-3-phospho-L-serine], for which the “ATPase activity of complex purified without PS” value in series [1] was “PS had the largest stimulating effect, irrespective of its fatty acyl chain (POPS or DMPS)”.
Same read-out and setting: as for `CCCCCCCC/C=C\CCCCCCCC(=O)O[C@H](COC(=O)CCCCCCCCCCCCCCC)COP(=O)(O)OCCN` [POPE, 1-palmitoyl-2-oleoyl-sn-glycero-3-phosphoethanolamine], the entry is “POPC only had a slightly stimulating effect, POPE had a larger one”.
`CCCCCCCC/C=C\CCCCCCCC(=O)O[C@H](COC(=O)CCCCCCCCCCCCCCC)COP(=O)(O)OC[C@H](N)C(=O)O` [POPS, 1-palmitoyl-2-oleoyl-sn-glycero-3-phospho-L-serine]: in series [2], the Km is over 26.2 µM.
`[O]=[V]([OH])([OH])[OH]` [orthovanadate]: the KI result in series [3] is given as “vanadate had a rather poor KI, in the millimolar range (Figure 7E)”.

B1: Cdc50p, tag-free after TEV cleavage (natural protein, S. cerevisiae, UniProt P25656 1-391, looked up)
chain: T1 sequence (P25656 1-391 partner)
modifications: glycosylated
notes: Cdc50p, accessory subunit of Drs2p; recombinant non-glycosylated mass 45,136 Da including the linker glycines; also called glycosylated Cdc50p; source: S. cerevisiae W303.1b/GAL4, co-expressed with Drs2p, purified with it (streptavidin-Sepharose, TEV elution, Ni2+-TED; SEC); not shown: His10, N-terminal, cleaved
Regarding B1, in series [4], the “stoichiometry N” value is 1 Drs2p:Cdc50p (mol:mol).

B2: Drs2p-Cdc50p complex (Saccharomyces cerevisiae S288C) (protein)
chain: T1 sequence (P39524 1-1355)
notes: full-length, co-expressed in yeast W303.1b/GAL4; N-terminal Bad tag (Drs2p) and His10 tag (Cdc50p) cut by TEV, Gly plus four-Gly linker left; 154,050 Da Drs2p, 45,136 Da unglycosylated Cdc50p; glycosylated; 1:1 complex in DDM; with Cell division control protein 50
For B2, in series [5], the K0.5 was 10 µM.
